This note sets out measurements from US8377895B2, “Cyclin-dependent protein kinases inhibitors of Scutellaria flavonoid organic amine derivatives, synthesis and use thereof” (priority 2008, dated 2013).

Converted amounts (≈) assume the structure as drawn.

A short description of data set [1]: Druggability screening: blood drug concentration and half-life. Conditions: equilibrium phase.
The next data set concerns the target Cdk1/Cyclin B (Homo sapiens, UniProt P06493). The data set can be described thus: Cdk1/Cyclin B inhibitory activity, Z'-LYTE Kinase Assay. The data set is classed as biochemical. As to conditions: ATP 10 μM; 8 concentrations of 0.01-25 μM.
A further data set deals with gastric (BGC-823). In words: Anticancer activity in vitro (Table 3), BGC-823. The format is cell-based, human.
Data set [2] relates to human cervical carcinoma HeLa cell line. The data set can be described thus: MTT cancer cell growth inhibition, HeLa. The format is cell-based.
Data set [3] deals with 58 kinds human tumor cell. In words: NCI growth inhibition of 58 kinds human tumor cell. The data set is classed as cell-based. As to conditions: 48 h, by NCI, read-out: growth inhibition rates in vitro 58 kinds human tumor cell.
The subject of data set [4] is human breast cancer MCF-7. The data set can be described thus: MTT cancer cell growth inhibition, MCF-7. The data set is classed as cell-based.
Data set [5] relates to human breast cancer MCF-7. In words: Annexin V-PI double staining flow cytometry apoptosis, MCF-7. The data set is classed as cell-based. As to conditions: MCF-7, concentration equals to IC50, 48 hours. (Flow cytometry measures light scatter and fluorescence of single cells or particles in a stream.)
The next data set has as its system MCF-7. In words: cells. Conditions: Homo sapiens.
The nature of data set [6]: Distribution and plasma binding in rabbits (LC-DAD-MS). The format is in vivo. The source says: The major metabolic process relates to the structures is illustrated in the following scheme.
Data set [7] is described as follows: Druggability screening: protein binding rate. The format is in vitro ADME.
For data set [8], the system named is human gastric cancer BGC823 cell lines. In words: MTT cancer cell growth inhibition, BGC823. The data set is classed as cell-based.
For the next data set, the system named is Breast (MCF-7). The data set can be described thus: Anticancer activity in vitro (Table 3), MCF-7. The format is cell-based, human.
Data set [9] in a line: Druggability screening: solubility in PBS (pH7.4). The data set is classed as physicochemical. As to conditions: pH 7.4, aqueous buffer.
The test system of data set [10] is human cervical carcinoma HeLa cell line. In words: Annexin V-PI double staining flow cytometry apoptosis, HeLa. The format is cell-based. As to conditions: concentration equals to IC50, 48 hours.
The next data set relates to Prostate (PC-3). The data set can be described thus: Anticancer activity in vitro (Table 3), PC-3. The data set is classed as cell-based, human. As to conditions: 48 h.
Data set [11] has as its system human gastric cancer BGC823 cell lines. The data set can be described thus: Annexin V-PI double staining flow cytometry apoptosis, BGC823. The data set is classed as cell-based. As to conditions: BGC823, concentration equals to IC50, 48 hours.

Chain of Cdk1/Cyclin B (P06493 whole entry): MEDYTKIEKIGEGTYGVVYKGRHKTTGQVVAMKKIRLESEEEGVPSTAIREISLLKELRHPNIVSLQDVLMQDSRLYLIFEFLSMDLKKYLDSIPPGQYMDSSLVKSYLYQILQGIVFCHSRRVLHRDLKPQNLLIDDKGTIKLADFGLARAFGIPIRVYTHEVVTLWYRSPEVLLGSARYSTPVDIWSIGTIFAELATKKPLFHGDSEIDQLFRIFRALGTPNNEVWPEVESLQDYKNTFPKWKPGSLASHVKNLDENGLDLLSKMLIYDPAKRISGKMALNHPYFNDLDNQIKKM
Chain of Cdk1/Cyclin B (P14635 whole entry partner): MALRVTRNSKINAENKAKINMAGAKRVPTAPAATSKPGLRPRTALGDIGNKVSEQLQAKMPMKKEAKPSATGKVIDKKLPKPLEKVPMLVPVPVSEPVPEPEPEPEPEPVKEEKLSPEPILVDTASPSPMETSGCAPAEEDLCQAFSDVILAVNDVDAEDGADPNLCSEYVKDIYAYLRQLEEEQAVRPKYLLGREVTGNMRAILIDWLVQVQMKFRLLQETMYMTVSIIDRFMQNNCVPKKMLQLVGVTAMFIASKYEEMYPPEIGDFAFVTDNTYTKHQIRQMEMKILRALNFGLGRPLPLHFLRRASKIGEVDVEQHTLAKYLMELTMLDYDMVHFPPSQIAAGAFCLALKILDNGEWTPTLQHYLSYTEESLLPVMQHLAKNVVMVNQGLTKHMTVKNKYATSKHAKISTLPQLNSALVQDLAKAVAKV

As for `O=c1cc(-c2ccccc2)oc2cc(O)c(O)c(O)c12` [Baicalein, reference compound], the Blood drug concentration in data set [1] stood at 26 nM. Also, in “in vivo”, the half-life (as a rule, the time needed for the level to fall by half in the phase considered) was 5.26 h. Besides, the IC50 (usually the concentration needed to halve the response being measured) against Cdk1/Cyclin B came out at 2.08 µM.
As to `CN1CCN(Cc2c(O)c(O)c(O)c3c(=O)cc(-c4ccccc4)oc23)CC1` [Methylpiperazine Baicalein, 5,6,7-trihydroxy-8-((4-methylpiperazin-1-yl)methyl)-2-phenyl-4H-chromen-4-one], in the data set on gastric (BGC-823) (48 h), the “BGC-823 TGI” value worked out at 19.8 µM. Besides, the GI50 (in general, the concentration that inhibits growth by half) in the data set on gastric (BGC-823) (Homo sapiens, BGC-823, 48 h) was determined as 6.4 µM; in the data set on MCF-7 (MCF7, read-out: MCT-7 GI50), 10.9 µM; with Breast (MCF-7) (Homo sapiens, MCF7, 48 h), 6.4 µM; in the data set on Prostate (PC-3) (Homo sapiens), 8.2 µM. Besides, the IC50 in the data set on gastric (BGC-823) (Homo sapiens, BGC-823, 48 h) turned out to be 23.1 µM; in data set [2] (24 h) it was 12.8 ± 0.2 µM; in data set [2] (48 h) it was 8.2 ± 0.15 µM; in data set [2] (72 h), 6.7 ± 0.24 µM; in data set [4] (MCF7, 24 h), 13.7 ± 0.21 µM; in data set [4] (MCF7, 48 h) it was 10.6 ± 0.17 µM. In addition, the IC50 in [4] (MCF7, 72 h) turned out to be 7.4 ± 0.25 µM; in [8] (BGC-823, 24 h), 9.6 ± 0.21 µM; in [8] (BGC-823, 48 h), 7.2 ± 0.23 µM; in data set [8] (BGC-823, 72 h) it was 6.5 ± 0.19 µM; in the data set with Breast (MCF-7) (Homo sapiens, MCF7, 48 h), 19.3 µM; in the data set on Prostate (PC-3) (Homo sapiens), 21.1 µM. 0.29 µM corresponded to half-maximal inhibition at Cdk1/Cyclin B (IC50). Moreover, the CC50 with gastric (BGC-823) (Homo sapiens, BGC-823, 48 h, read-out: BGC-823 LC50) was found to be 62.7 µM; in the data set on MCF-7 (MCF7, read-out: MCF-7 LC50) it was 37.2 µM; in the data set on Breast (MCF-7) (Homo sapiens, MCF7, 48 h, read-out: MCF-7 LC50) it was 31.3 µM. Besides, in data set [3], the inhibition (as a rule, the change of the read-out against control, counted positive when it falls) at 10 µM was determined as 50%. Also, the early apoptosis is reported as 72.3% in data set [5], 67.3% in data set [10] and 69.2% in [11]. In addition, the results for the “late apoptosis and cellular necrosis” value in [5], in data set [10] and in data set [11] were 23.1%, 27.1% and 22.2%, respectively. In data set [6] (LC-DAD-MS), the tissue distribution entry is listed as “rapidly distributed to various tissues”. The fraction unbound was 0.02 in data set [6] (rabbit, plasma, dose-independent manner, read-out: bound to plasma (converted)) and 0.02 in [7]. The “MCF-7 TGI” value with Breast (MCF-7) (48 h) was determined as 16.4 µM. In data set [9], the solubility (in general, the concentration that dissolves in the medium under given conditions) came out at 6.02 µM (≈ 2.3 µg/mL). In the data set on Prostate (PC-3), the “PC-3 TGI” value amounted to 19.8 µM. In addition, in the data set on Prostate (PC-3) (Homo sapiens), the LC50 (in general, the concentration that kills 50% of the test population) turned out to be 38.8 µM.
